In paper PMC7462985, “Inhibitors of BRAF dimers using an allosteric site” (Nature Communications, 2020):
One block for each molecule: values may come before it.

Legend:
[1] = biological target: T1, ABL1(T315I)-phosphorylated (Homo sapiens, UniProt P00519, T315I); assay: KINOMEscan scanEDGE binding; conditions: KinomeEDGE scan, compound at 1 μΜ
T1 construct: purchased Eurofins/DiscoverX KINOMEscan (scanEDGE panel)

KIT = KIT (Homo sapiens, UniProt P10721); assay: SelectScreen kinase activity assay; format: biochemical; parameters: purchased Invitrogen (SelectScreen service); conditions: 100 μM ATP
Chain of KIT (P10721 26-976): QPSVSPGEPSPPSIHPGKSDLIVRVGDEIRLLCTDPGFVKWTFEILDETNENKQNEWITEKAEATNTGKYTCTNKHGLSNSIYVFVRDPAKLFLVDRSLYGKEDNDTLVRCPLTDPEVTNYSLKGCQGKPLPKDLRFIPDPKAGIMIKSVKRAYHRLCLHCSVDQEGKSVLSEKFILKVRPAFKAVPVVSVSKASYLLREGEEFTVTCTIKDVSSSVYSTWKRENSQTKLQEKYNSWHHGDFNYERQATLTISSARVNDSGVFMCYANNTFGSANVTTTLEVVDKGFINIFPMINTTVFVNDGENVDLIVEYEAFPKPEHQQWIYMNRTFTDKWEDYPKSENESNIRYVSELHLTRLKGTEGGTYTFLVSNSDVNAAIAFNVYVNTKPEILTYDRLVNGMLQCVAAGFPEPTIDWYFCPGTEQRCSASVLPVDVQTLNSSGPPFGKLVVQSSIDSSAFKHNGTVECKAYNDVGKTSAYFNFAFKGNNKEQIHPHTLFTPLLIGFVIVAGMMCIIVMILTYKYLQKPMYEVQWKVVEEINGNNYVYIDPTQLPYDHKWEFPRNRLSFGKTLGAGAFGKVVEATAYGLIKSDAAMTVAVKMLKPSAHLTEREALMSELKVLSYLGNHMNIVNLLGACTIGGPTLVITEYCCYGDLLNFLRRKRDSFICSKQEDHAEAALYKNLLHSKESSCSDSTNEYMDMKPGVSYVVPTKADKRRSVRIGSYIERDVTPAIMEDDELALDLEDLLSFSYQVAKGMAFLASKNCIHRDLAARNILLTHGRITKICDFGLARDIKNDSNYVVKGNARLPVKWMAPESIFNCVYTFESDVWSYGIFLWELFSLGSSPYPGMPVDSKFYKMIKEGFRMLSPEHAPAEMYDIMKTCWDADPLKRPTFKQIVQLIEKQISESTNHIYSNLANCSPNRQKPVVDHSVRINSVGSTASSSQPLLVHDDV
Description: (§1) BRAF kinase assays were performed using the Z’-LYTE™ enzymatic assay (Invitrogen, USA). […] Titrations were performed using a 1:3 dilution. Assays were performed using SelectScreen (Invitrogen).

FLT3 = biological target: T2, FLT3 (Homo sapiens, UniProt P36888); assay: SelectScreen kinase activity assay; format: biochemical; parameters: purchased Invitrogen (SelectScreen service); conditions: PHI1 versus Ponatinib
T2 sequence (P36888 27-993): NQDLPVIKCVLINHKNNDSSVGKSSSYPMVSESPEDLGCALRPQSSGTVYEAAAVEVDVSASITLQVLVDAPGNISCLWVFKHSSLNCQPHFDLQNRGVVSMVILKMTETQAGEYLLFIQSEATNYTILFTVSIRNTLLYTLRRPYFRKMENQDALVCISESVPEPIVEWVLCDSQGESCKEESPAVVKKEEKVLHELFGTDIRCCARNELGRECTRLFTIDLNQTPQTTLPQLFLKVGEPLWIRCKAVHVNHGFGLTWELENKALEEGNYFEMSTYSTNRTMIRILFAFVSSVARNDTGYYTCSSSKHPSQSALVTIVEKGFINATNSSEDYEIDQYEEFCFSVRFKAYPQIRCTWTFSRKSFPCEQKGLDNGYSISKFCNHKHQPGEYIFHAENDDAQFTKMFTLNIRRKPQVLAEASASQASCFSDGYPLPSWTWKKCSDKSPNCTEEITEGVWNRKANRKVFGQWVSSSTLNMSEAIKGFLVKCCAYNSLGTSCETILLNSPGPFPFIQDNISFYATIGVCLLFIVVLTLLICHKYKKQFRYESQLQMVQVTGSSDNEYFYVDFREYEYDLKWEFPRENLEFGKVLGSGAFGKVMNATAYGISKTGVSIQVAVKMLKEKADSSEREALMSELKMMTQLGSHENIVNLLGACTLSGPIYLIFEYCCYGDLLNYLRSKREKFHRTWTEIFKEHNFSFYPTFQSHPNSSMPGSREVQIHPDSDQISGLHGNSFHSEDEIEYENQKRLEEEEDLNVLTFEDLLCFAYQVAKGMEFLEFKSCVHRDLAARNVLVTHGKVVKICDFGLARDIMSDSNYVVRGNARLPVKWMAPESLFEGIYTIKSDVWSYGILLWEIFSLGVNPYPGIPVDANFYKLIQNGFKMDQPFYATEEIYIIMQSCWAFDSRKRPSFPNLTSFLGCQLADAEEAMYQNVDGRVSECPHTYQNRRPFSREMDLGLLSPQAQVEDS
Description: as §1

[2] = biological target: T3, ABL1(E255K)-phosphorylated (Homo sapiens, UniProt P00519, E255K); assay: KINOMEscan scanEDGE binding; conditions: KinomeEDGE scan, compound at 1 μΜ
T3 construct: purchased Eurofins/DiscoverX KINOMEscan (scanEDGE panel)

PDFGRα = biological target: T4, PDFGRα (Homo sapiens, UniProt P16234); assay: SelectScreen kinase activity assay; format: biochemical; conditions: 100 μM ATP
T4 construct: purchased Invitrogen (SelectScreen service)
T4 sequence (P16234 24-1089): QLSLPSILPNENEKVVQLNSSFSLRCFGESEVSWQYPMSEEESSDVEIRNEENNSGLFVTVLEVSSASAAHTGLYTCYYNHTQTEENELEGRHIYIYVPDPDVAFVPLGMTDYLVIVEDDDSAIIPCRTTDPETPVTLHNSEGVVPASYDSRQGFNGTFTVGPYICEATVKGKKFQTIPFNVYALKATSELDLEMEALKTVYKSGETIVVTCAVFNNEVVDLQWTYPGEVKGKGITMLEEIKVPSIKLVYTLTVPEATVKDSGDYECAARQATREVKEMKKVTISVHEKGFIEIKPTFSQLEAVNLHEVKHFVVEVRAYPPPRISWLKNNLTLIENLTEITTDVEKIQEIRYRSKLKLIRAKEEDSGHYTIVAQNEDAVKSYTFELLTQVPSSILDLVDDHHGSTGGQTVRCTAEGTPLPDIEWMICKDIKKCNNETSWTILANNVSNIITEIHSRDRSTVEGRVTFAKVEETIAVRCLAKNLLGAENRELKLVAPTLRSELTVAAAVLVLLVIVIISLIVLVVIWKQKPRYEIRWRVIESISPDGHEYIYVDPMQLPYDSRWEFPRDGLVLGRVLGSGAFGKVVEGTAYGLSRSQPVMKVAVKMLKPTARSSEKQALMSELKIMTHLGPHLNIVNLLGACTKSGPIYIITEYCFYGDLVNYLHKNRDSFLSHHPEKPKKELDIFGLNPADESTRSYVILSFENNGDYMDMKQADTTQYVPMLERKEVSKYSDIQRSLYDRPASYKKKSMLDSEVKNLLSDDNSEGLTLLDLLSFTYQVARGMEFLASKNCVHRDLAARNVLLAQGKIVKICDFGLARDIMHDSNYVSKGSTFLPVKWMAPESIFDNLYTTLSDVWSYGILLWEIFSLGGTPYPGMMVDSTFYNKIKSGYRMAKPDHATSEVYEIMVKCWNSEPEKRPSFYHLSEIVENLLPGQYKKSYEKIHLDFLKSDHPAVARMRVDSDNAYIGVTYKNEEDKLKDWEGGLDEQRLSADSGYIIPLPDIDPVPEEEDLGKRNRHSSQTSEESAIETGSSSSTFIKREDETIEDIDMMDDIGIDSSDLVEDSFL
Description: as §1

BRAF^V600E [3] = biological target: T5, BRAF^V600E (Homo sapiens, UniProt P15056, V600E); assay: SelectScreen Z'-LYTE kinase activity assay; format: biochemical; parameters: purchased Invitrogen (SelectScreen service); conditions: 100 μM ATP
T5 sequence (P15056 whole entry V600E): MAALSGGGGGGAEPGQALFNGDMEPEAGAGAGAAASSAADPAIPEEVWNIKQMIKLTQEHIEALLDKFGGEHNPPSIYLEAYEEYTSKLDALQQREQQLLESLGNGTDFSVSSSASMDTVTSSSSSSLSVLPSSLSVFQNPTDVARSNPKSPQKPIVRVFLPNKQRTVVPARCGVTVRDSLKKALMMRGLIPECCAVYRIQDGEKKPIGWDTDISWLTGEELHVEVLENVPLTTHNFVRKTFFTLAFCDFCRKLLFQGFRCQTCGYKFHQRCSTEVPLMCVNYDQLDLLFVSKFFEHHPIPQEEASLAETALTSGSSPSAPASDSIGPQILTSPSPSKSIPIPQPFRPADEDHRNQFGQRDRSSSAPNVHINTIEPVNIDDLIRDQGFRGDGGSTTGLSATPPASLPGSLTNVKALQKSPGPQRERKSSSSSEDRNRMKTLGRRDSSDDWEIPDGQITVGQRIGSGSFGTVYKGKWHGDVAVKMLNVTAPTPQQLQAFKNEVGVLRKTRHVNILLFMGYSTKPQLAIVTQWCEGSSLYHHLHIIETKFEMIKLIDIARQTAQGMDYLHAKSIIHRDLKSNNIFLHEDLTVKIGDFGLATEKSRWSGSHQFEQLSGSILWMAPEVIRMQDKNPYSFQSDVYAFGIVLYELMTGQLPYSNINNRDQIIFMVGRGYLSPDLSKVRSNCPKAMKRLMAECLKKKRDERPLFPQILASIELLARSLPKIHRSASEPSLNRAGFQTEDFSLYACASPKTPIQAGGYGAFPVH
Description: as §1

ACVR1B = biological target: T6, ACVR1B (Homo sapiens, UniProt P36896); assay: KINOMEscan scanEDGE binding; conditions: KinomeEDGE scan, compound at 1 μΜ
T6 construct: purchased Eurofins/DiscoverX KINOMEscan (scanEDGE panel)

BRAF^WT = biological target: T7, BRAF^WT (Homo sapiens, UniProt P15056); assay: SelectScreen Z'-LYTE kinase activity assay; format: biochemical; conditions: 100 μM ATP
T7 construct: purchased Invitrogen (SelectScreen service)
T7 sequence (P15056 whole entry): as the sequence (P15056 whole entry V600E) above, with E600V counted along it
Description: as §1

[4] = biological target: BRAF^V600E monomers in A375 cells (Homo sapiens, UniProt P15056, V600E); assay: Cellular Thermal Shift Assay (CETSA); format: cell-based; conditions: 20 μΜ compound, versus DMSO
Chain of BRAF^V600E monomers in A375 cells (P15056 whole entry V600E): as the sequence (P15056 whole entry V600E) above
Description: The samples were incubated for 1 h at room temperature, rotating. After compound incubation, samples (50 μL each) were transferred in PCR tubes and incubated for 3 min in a temperature gradient produced with a C1000 thermal cycler (Bio-Rad). Cells were immediately lysed by repeating freeze-thaw cycles (3× times) in liquid nitrogen. […] Equal volumes of supernatants were run on 15-well 4–12% NuPAGE SDS-PAGE gels (Invitrogen), and analyzed by western blot. GAPDH, which is temperature insensitive under these conditions, served as loading control. Results were quantitated by densitometric analysis as described above.

EPHA = assay: KINOMEscan scanEDGE binding; parameters: species or system human; conditions: KinomeEDGE scan, compound at 1 μΜ
ABL1-nonphosphorylated = biological target: T8, ABL1-nonphosphorylated (Homo sapiens, UniProt P00519); assay: KINOMEscan scanEDGE binding; conditions: KinomeEDGE scan, compound at 1 μΜ
T8 construct: purchased Eurofins/DiscoverX KINOMEscan (scanEDGE panel)

[5] = biological target: T9, TYK2(JH1domain-catalytic) (Homo sapiens, UniProt P29597); assay: KINOMEscan scanEDGE binding; conditions: KinomeEDGE scan, compound at 1 μΜ
T9 construct: TYK2(JH1domain-catalytic); purchased Eurofins/DiscoverX KINOMEscan (scanEDGE panel)

BRAF^V600E [6] = biological target: T5, BRAF^V600E; assay: BRAF kinase activity assay (western blot); format: biochemical; parameters: purchased Invitrogen (SelectScreen service)
Description: (§2) Kinase activity assays were performed using BRAF Kinase Assay Kit (#17-359), CRAF Kinase Assay Kit (#17-360) and MAP Kinase/Erk Assay Kit (#17-191), following protocols by the provider (Millipore) with some modifications. In brief, BRAF and CRAF, and MEK1 recombinant proteins were incubated for 15 min with inhibitors, then corresponding substrates were added and incubated for 30 min at 30 °C and assayed via western blot.

FGFR3 = biological target: T10, FGFR3 (Homo sapiens, UniProt P22607); assay: KINOMEscan scanEDGE binding; conditions: KinomeEDGE scan, compound at 1 μΜ
T10 construct: purchased Eurofins/DiscoverX KINOMEscan (scanEDGE panel)

[7] = standard of care dose for CML; cited from earlier work
MKNK2 = biological target: T11, MKNK2 (Homo sapiens, UniProt Q9HBH9); assay: KINOMEscan scanEDGE binding; conditions: KinomeEDGE scan, compound at 1 μΜ
T11 construct: purchased Eurofins/DiscoverX KINOMEscan (scanEDGE panel)

CDK9 = biological target: T12, CDK9 (Homo sapiens, UniProt P50750); assay: KINOMEscan scanEDGE binding; conditions: KinomeEDGE scan, compound at 1 μΜ
T12 construct: purchased Eurofins/DiscoverX KINOMEscan (scanEDGE panel)

FGFR1 = FGFR1 (Homo sapiens, UniProt P11362); assay: KINOMEscan scanEDGE binding; parameters: purchased Eurofins/DiscoverX KINOMEscan (scanEDGE panel); conditions: KinomeEDGE scan, compound at 1 μΜ
Chain of FGFR1 (P11362 22-822): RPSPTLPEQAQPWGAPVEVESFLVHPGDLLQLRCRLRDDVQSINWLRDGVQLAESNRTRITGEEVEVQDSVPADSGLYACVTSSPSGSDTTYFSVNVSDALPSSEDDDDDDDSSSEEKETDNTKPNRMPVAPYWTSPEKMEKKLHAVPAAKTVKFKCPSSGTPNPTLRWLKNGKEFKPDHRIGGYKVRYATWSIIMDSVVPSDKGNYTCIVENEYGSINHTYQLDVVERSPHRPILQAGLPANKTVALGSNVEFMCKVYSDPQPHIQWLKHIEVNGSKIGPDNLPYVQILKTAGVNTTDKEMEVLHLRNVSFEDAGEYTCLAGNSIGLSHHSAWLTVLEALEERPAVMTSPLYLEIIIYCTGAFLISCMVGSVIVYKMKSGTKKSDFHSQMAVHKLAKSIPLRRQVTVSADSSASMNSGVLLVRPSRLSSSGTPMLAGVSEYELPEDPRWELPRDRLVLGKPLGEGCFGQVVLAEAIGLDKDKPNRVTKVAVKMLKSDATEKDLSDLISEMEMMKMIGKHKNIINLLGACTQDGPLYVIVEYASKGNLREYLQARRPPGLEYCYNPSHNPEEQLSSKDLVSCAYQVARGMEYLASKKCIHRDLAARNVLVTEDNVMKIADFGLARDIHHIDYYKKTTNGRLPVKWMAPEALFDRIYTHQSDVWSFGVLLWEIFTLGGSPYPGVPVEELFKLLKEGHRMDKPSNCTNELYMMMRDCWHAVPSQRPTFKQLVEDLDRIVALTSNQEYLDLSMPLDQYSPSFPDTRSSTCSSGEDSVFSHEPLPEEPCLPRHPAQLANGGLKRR

[8] = biological target: T13, JAK2(JH1domain-catalytic) (Homo sapiens, UniProt O60674); assay: KINOMEscan scanEDGE binding; conditions: KinomeEDGE scan, compound at 1 μΜ
T13 construct: JAK2(JH1domain-catalytic); purchased Eurofins/DiscoverX KINOMEscan (scanEDGE panel)
T13 sequence (O60674 840-1132 limits assumed): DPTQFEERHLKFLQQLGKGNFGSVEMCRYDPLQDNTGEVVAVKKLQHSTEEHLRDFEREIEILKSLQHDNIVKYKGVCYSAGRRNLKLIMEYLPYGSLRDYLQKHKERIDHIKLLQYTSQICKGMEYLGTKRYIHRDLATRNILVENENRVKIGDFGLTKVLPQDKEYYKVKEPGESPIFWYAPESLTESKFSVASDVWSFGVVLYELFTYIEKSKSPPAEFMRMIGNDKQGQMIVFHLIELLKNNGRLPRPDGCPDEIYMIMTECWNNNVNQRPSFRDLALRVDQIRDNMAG

EPHA2 = biological target: T14, EPHA2 (Homo sapiens, UniProt P29317); assay: KINOMEscan scanEDGE binding; conditions: KinomeEDGE scan, compound at 1 μΜ
T14 construct: purchased Eurofins/DiscoverX KINOMEscan (scanEDGE panel)

EGFR(L858R) = biological target: T15, EGFR(L858R) (Homo sapiens, UniProt P00533, L858R); assay: KINOMEscan scanEDGE binding; conditions: KinomeEDGE scan, compound at 1 μΜ
T15 construct: purchased Eurofins/DiscoverX KINOMEscan (scanEDGE panel)

ERBB4 = biological target: T16, ERBB4 (Homo sapiens, UniProt Q15303); assay: KINOMEscan scanEDGE binding; conditions: KinomeEDGE scan, compound at 1 μΜ
T16 construct: purchased Eurofins/DiscoverX KINOMEscan (scanEDGE panel)

p38-alpha = biological target: T17, p38-alpha (Homo sapiens, UniProt Q16539); assay: KINOMEscan scanEDGE binding; conditions: KinomeEDGE scan, compound at 1 μΜ
T17 construct: purchased Eurofins/DiscoverX KINOMEscan (scanEDGE panel)
T17 sequence (Q16539 whole entry): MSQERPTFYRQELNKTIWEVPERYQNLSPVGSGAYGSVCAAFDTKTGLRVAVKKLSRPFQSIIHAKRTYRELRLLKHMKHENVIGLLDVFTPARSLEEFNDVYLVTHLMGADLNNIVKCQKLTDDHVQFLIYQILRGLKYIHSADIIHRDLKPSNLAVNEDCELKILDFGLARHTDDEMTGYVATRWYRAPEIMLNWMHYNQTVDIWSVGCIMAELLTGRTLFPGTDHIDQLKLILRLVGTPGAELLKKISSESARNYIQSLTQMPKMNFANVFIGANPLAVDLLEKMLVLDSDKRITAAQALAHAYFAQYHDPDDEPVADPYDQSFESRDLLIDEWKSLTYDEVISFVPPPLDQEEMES

EGFR = biological target: T18, EGFR (Homo sapiens, UniProt P00533); assay: KINOMEscan scanEDGE binding; conditions: KinomeEDGE scan, compound at 1 μΜ
T18 construct: purchased Eurofins/DiscoverX KINOMEscan (scanEDGE panel)

CRAF = biological target: T19, CRAF (Homo sapiens, UniProt P04049); assay: CRAF kinase activity assay (western blot); format: biochemical
T19 construct: purchased Millipore #17-360
T19 sequence (P04049 whole entry, species assumed): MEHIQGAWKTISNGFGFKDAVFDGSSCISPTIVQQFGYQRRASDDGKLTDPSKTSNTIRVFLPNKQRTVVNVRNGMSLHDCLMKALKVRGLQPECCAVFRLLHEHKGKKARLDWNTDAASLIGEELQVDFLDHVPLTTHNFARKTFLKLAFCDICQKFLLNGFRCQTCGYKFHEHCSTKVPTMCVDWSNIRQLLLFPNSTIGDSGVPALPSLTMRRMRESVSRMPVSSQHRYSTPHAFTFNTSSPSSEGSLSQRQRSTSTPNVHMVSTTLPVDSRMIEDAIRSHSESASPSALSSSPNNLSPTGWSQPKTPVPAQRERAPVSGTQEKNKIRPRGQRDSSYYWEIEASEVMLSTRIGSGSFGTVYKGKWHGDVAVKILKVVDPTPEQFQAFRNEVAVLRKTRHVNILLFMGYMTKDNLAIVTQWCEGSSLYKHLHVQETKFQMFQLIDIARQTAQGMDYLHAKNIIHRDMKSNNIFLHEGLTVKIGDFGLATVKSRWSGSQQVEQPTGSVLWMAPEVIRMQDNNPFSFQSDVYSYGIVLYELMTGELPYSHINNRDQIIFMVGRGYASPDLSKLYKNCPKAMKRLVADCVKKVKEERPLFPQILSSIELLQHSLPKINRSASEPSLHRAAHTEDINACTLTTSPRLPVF
Description: as §2

BTK = biological target: T20, BTK (Homo sapiens, UniProt Q06187); assay: KINOMEscan scanEDGE binding; conditions: KinomeEDGE scan, compound at 1 μΜ
T20 construct: purchased Eurofins/DiscoverX KINOMEscan (scanEDGE panel)

% Ctrl ABL1(T315I)-phosphorylated [1]: 3.5 % Ctrl
IC50 (KIT): 548 ± 21 nM
reduction of inhibitory activity on FLT3 compared to Ponatinib (FLT3): tenfold
% Ctrl ABL1(E255K)-phosphorylated [2]: 0.25 % Ctrl
IC50 (PDFGRα): 8.3 ± 1.5 nM
IC50 (BRAF^V600E [3]): 10 nM
% Ctrl ACVR1B (ACVR1B): 0.4 % Ctrl
IC50 (BRAF^WT): 323 ± 35 nM
ΔTm (CETSA) [4]: +3.4 °C
% Ctrl EPHA (EPHA): 14 % Ctrl
% Ctrl ABL1-nonphosphorylated (ABL1-nonphosphorylated): 0 % Ctrl
SMILES: Cc1ccc(C(=O)Nc2ccc(CNCCN3CCOCC3)c(C(F)(F)F)c2)cc1C#Cc1cnc2cccnn12 [PHI1]

SMILES: Cc1ccc(C(=O)Nc2ccc(CN3CCN(C)CC3)c(C(F)(F)F)c2)cc1C#Cc1cnc2cccnn12 [Ponatinib, 3-[2-(imidazo[1,2-b]pyridazin-3-yl)ethynyl]-4-methyl-N-{4-[(4-methylpiperazin-1-yl)methyl]-3-(trifluoromethyl)phenyl}benzamide]
% Ctrl TYK2(JH1domain-catalytic) [5]: 8.6 % Ctrl
inhibition of MEK phosphorylation by BRAF^V600E (in words) (BRAF^V600E [6]): potent inhibitor
% Ctrl FGFR3 (FGFR3): 0.9 % Ctrl
elimination half-life [7]: > 24 h
maximum plasma levels [7]: ~ 100 nM
% Ctrl MKNK2 (MKNK2): 0.6 % Ctrl
% Ctrl CDK9 (CDK9): 28 % Ctrl
% Ctrl FGFR1 (FGFR1): 0.15 % Ctrl
% Ctrl JAK2(JH1domain-catalytic) [8]: 9.5 % Ctrl
% Ctrl EPHA2 (EPHA2): 0 % Ctrl
% Ctrl EGFR(L858R) (EGFR(L858R)): 19 % Ctrl
% Ctrl ERBB4 (ERBB4): 27 % Ctrl
% Ctrl p38-alpha (p38-alpha): 0 % Ctrl
% Ctrl EGFR (EGFR): 15 % Ctrl
inhibition of CRAF kinase activity (in words) (CRAF): potently inhibited
% Ctrl BTK (BTK): 22 % Ctrl
